Results reported in patent publication US20260226069A1, “GCN2 AND PERK KINASE MODULATORS AND METHODS OF USE THEREOF” (Deciphera Pharmaceuticals, LLC, priority 2023, published 2026).
pIC50: −log10 of the molar value.

Key:
[1] = biological target: T1, GCN2 kinase (Homo sapiens, UniProt Q9P2K8); assay: Biochemical assay for GCN2 (TR-FRET kinase activity assay); details: 2 nM GCN2, 1 mM ATP, 3-hour incubation
T1 construct: G556E with a; purchased Carna Biosciences
Protocol: Biochemical assay for GCN2
Activity of GCN2 kinase was determined using a TR-FRET kinase activity assay (e.g., Analytical Biochemistry, 2006, 356, 108-116). Assays were conducted in 384-well plates (13 μL assay volume) using 2 nM GCN2 (Carna Biosciences), 130 nM GFP-EIf2α (Invitrogen), 0.2 mg/mL E. coli tRNA (sigma) and 1 mM ATP in kinase buffer (Invitrogen). Inhibition of GCN2 was measured by adding serial diluted test compound (final assay concentration of 0.5% DMSO) followed by a 3-hour incubation. Tb-peIF2α (pSer52) antibody (Invitrogen) (2 nM final assay concentration) in kinase buffer containing EDTA (final assay concentration of 20 mM) was added. After a 60 min incubation at room temperature, TR-FRET was monitored using an excitation wavelength of 340 nm and emission wavelengths of 490 nm and 520 nm. The emission ratio (520/490) at each compound concentration of was converted to percent inhibition using controls (i.e., reaction with no test compound and reaction with a known inhibitor) and IC50 values were calculated by fitting a four-parameter sigmoidal curve to the data using Prism (GraphPad software).

[2] = biological target: T2, PERK kinase (Homo sapiens, UniProt Q9NZJ5, A704S); assay: Biochemical assay for PERK (coupled pyruvate kinase/lactate dehydrogenase assay); details: 10 nM PERK, 1 mM ATP, reaction rate 2-3 h time frame, 30° C.
T2 construct: GST (with thrombin site LVPRGS); purchased Beryllium
Protocol: Biochemical Assay for PERK
Activity of PERK kinase was determined spectroscopically using a coupled pyruvate kinase/lactate dehydrogenase assay that continuously monitors the ATP hydrolysis-dependent oxidation of NADH (Science, 2000, 289, 1938-1942). Assays were conducted in 384-well plates (100 μL final volume) using 10 nM PERK (from Beryllium), 0.25 mg/mL Myelin Basic Protein substrate, 1.5 units pyruvate kinase, 2.1 units lactate dehydrogenase, 1 mM phosphoenol pyruvate, 0.28 mM NADH and 1 mM ATP in assay buffer (100 mM Tris, pH 7.5, 15 mM MgCl2, 0.5 mM DTT, 0.004% (w/v) BSA, and 0.004% Triton X-100). Inhibition of PERK was measured by adding serial diluted test compound (final assay concentration of 1% DMSO). A decrease in absorption at 340 nm was monitored continuously for 6 hours at 30° C. on a multi-mode microplate reader (BioTek). The reaction rate was calculated using the 2-3 h time frame. The reaction rate at each concentration of compound was converted to percent inhibition using controls (i.e., reaction with no test compound and reaction with a known inhibitor) and IC50 values were calculated using software routines in Prism (GraphPad software).

[3] = tested on: ASNase treated CCRF-CEM cells; assay: CCRF-CEM ASNase cell proliferation assay, phenotypic assay for cellular inhibition of GCN2; format: cell-based; details: Homo sapiens, 1 mU/mL ASNase, 72 h, resazurin
Protocol: CCRF-CEM ASNase Cell Proliferation Assay, a Phenotypic Assay for Cellular Inhibition of GCN2.
CCRF-CEM leukemia cells (catalog #CCL-116) were obtained from the American Type Culture Collect (ATTC, Manassas, VA). Cells were grown in RPMI-1640 medium supplemented with 10% heat-inactivated fetal bovine serum (Invitrogen, Carlsbad, CA) and 1% Penicillin/Streptomycin/L-Glutamine at 37° C., 5% CO2, and 95% humidity. Cells were expanded until reaching one million cells per mL at which time they are subcultured or harvested for assay use. Ten thousand cells per well in 200 μL RPMI-1640 supplemented with 10% heat-inactivated fetal bovine serum and 1% Penicillin/Streptomycin were dispensed into a 96-well black clear bottom plate. A serial dilution of test compound and 1 mU/mL ASNase was added in triplicate and plates were incubated for 72 h at 37° C., 5% CO2, and 95% humidity. At the end of the incubation, 40 μL of a […] solution of resazurin (Sigma, St. Louis, MO) in PBS was added to each well of the plate and plates were incubated for an additional 6 h at 37° C., 5% CO2, and 95% humidity. Plates were read on a Synergy2 or equivalent reader (Biotek, Winooski VT) using an excitation of 540 nm and an emission of 600 nm. Data was analyzed using GraphPad Prism software (GraphPad, San Diego, CA) to calculate IC50 values.

[4] = tested on: ATF4 in Thapsigargin stimulated CCRF-CEM cells; assay: CCRF-CEM TG ATF4 ELISA, phenotypic assay for cellular inhibition of PERK preactivated by thapsigargin; format: cell-based; details: Homo sapiens, 3 h, compound three hours then 1 μM thapsigargin for an additional hour
Protocol: CCRF-CEM TG ATF4 ELISA, a Phenotypic Assay for Cellular Inhibition of PERK Preactivated by Thapsigargin (TG)
CCRF-CEM leukemia cells (catalog #CCL-116) were obtained from the American Type Culture Collection (ATTC, Manassas, VA). Briefly, cells were grown in RPMI-1640 medium supplemented with 10% heat-inactivated fetal bovine serum (Invitrogen, Carlsbad, CA) and 1% Penicillin/Streptomycin/L-Glutamine at 37° C., 5% CO2, and 95% humidity. Cells were expanded until reaching one million cells per mL at which time they were subcultured or harvested for assay use. One million five hundred thousand cells per well in 1 mL complete growth medium were dispensed into 12-well plates and incubated overnight. A serial dilution of test compound was added and cells were incubated at 37° C., 5% CO2, and 95% for three hours, then 1 μM thapsigargin was added and cells were incubated for an additional hour at 37° C., 5% CO2, and 95%. Cells were lysed then ATF4 levels were measured using an ELISA assay (Proteintech, Rosemont, IL). Absorbance was measured at 450 nm and 544 nM using a Synergy2 or equivalent reader (Biotek, Winooski VT). Data was analyzed using PRISM software (Graphpad, San Diego, CA) to calculate IC50 values.

[5] = tested on: ATF4 in H929 Multiple Myeloma cells; assay: H929 ATF4 ELISA assay; format: cell-based; details: four hours, fold stimulation of cellular ATF4 relative to vehicle treated control
Protocol: H929 multiple myeloma cells (catalog #CRL-9068) were obtained from the American Type Culture Collection (ATTC, Manassas, VA). Briefly, cells were grown in RPMI-1640 medium supplemented with 20% heat-inactivated fetal bovine serum (catalog #A3840002, ThermoFisher Scientific, Waltham, MA), 1% Penicillin/Streptomycin/L-Glutamine (catalog #10378016, ThermoFisher Scientific, Waltham, MA), and 0.05 mM 2-mercaptoethanol (catalog #21985-023, ThermoFisher Scientific, Waltham, MA) at 37° C., 5% CO2, and 95% humidity. Cells were expanded until reaching one million five hundred thousand cells per mL at which time they were sub-cultured or harvested for assay use. One million five hundred thousand cells per well in 1 mL complete growth medium were dispensed into 12-well plates and incubated overnight. A serial dilution of test compound was added, and cells were incubated at 37° C., 5% CO2, and 95% for four hours. Cells were lysed then ATF4 levels were measured using an ELISA assay (Proteintech, Rosemont, IL). Absorbance is measured at 450 nm and 544 nM using a Synergy2 or equivalent reader (Biotek, Winooski VT). Data were analyzed using PRISM software (Graphpad, San Diego, CA) to calculate fold stimulation of cellular ATF4 relative to vehicle treated control.

T2 sequence (Q9NZJ5 with tags, fused parts or gaps A704S): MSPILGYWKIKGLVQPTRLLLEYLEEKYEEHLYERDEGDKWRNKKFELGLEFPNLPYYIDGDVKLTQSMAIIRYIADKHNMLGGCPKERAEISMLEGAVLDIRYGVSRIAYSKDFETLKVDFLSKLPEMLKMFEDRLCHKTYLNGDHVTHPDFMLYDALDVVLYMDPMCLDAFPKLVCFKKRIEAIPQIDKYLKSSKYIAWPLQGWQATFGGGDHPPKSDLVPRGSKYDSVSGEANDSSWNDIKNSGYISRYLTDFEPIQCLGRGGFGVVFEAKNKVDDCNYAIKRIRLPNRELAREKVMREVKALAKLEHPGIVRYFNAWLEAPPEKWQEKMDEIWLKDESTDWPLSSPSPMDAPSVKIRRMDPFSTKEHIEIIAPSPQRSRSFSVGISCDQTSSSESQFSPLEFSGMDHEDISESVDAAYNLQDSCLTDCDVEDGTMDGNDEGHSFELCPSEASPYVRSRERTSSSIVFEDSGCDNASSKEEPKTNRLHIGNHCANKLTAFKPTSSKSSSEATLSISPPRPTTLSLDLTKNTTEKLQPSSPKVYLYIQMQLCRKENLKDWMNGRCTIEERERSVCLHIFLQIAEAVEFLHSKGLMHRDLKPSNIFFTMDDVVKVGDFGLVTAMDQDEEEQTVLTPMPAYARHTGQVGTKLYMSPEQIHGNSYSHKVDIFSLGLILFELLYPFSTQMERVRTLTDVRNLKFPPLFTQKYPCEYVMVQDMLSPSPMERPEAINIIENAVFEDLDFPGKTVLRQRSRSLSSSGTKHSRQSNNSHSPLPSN

Row | pIC50 [1] | pIC50 [2] | pIC50 [3] | pIC50 [4] | Structure (SMILES) | H929 NS ATF4 ELISA [5]
1 | 5.00 to 6.00 | ≥ 7.00 | 5.00 to 6.00 | 5.00 to 6.00 | COc1ncc(Cl)cc1S(=O)(=O)Nc1cc(F)c(F)c(-c2cn(C)c3ncnc(N)c23)c1 [Example 43] | + (an ATF4 stim less than or equal to 5-fold)
2 | 6.00 to 6.30 | ≥ 7.00 | 5.00 to 6.00 | 6.30 to 7.00 | Cn1cc(-c2cccc(NS(=O)(=O)c3cc(Cl)cc(/C=N\O)c3Cl)c2F)c2c(N)ncnc21 [Example 52, (Z)—N-(3-(4-amino-7-methyl-7H-pyrrolo[2,3-d]pyrimidin-5-yl)-2-fluorophenyl)-2,5-dichloro-3-((hydroxyimino)methyl)benzenesulfonamide] | ++++ (an ATF4 stim greater than 20-fold)
